Paper PMC8149334 (Cancer Chemotherapy and Pharmacology, 2021)

Legend:
P-glycoprotein (P-gp) = conditions: cited from earlier work
[1] = in vivo
Protocol: Additional details of the bioanalytical methods are available in the Supplementary Appendix. Serial blood samples were collected in Parts 1 and 2 on day 1 of cycles 1, 2, and 3, and every 3 cycles thereafter (Supplementary Table 1). […] Concentration–time profiles were plotted for each analyte, and individual and mean plasma concentration–time data and pharmacokinetic parameters were summarized using descriptive statistics.
Pharmacokinetic analyses were performed using the validated Phoenix™ WinNonlin® software (v6.2.1; […]). Noncompartmental analysis (model, Plasma; dose, extravascular) was applied for the pharmacokinetic analysis. The pharmacokinetics outputs were created using SAS v9.3 (SAS Institute Inc., Cary, NC, USA). Summary statistics, including N, mean, SD, % coefficient of variation, geometric mean, median, minimum, and maximum, were calculated for plasma concentration of each analyte at each time point and for the derived pharmacokinetic parameters.

## CNC(=O)c1ccc(N2C(=S)N(c3cnc(C#N)c(C(F)(F)F)c3)C(=O)C23CCC3)cc1F [Apalutamide, apalutamide]
P-glycoprotein (P-gp); patients with CRPC
  Reduction in AUC0–last of fexofenadine: 30%

## O=C(O)c1cccc2cn(-c3ccc(C4CCCNC4)cc3)nc12 (stereo not drawn) [M1]
[1]
  Metabolite-to-parent ratios: below 1

## CO[C@H]1/C=C/O[C@@]2(C)Oc3c(C)c(O)c4c(O)c(c(/C=N/N5CCN(C)CC5)c(O)c4c3C2=O)NC(=O)/C(C)=C\C=C\[C@H](C)[C@H](O)[C@@H](C)[C@@H](O)[C@@H](C)[C@H](OC(C)=O)[C@@H]1C [Rifampin]
P-glycoprotein (P-gp); human, not told
  Decrease in exposure of various P-gp substrates: ≤ 67%
